Experimental data as given in the NIST ThermoML archive (doi:10.1016/j.fluid.2015.12.026).
± gives the expanded uncertainty stated by the source.

Test: wn = mass fraction of the nth substance listed
Conditions: 101.3 kPa, Liquid, Vibrating tube method

Compound: NC(N)=O [urea] + OCCOCCO
- mass density (298.15 K, w1 = 0.2315): 1160.9 ± 1.1 kg/m3
- mass density (313.15 K, w1 = 0.2807): 1174.2 ± 1.3 kg/m3
- mass density (333.15 K, w1 = 0.3526): 1184.5 ± 1.7 kg/m3

Compound: O=C(O)CCCCC(=O)O [1,6-hexanedioic acid] + OCCOCCO
- mass density (298.15 K, w1 = 0.0878): 1171.8 ± 0.5 kg/m3
- mass density (313.15 K, w1 = 0.1087): 1175.7 ± 0.6 kg/m3
- mass density (333.15 K, w1 = 0.1472): 1188.2 ± 0.7 kg/m3
